Measurements taken from ChEMBL document CHEMBL1201862, “PubChem BioAssay data set” (2004).
The source made the active and inactive calls.

What was measured:
[1] = THP-1 cell cytotoxicity, dose response, cytotoxicity control for non-replicating M. tuberculosis project (AID 489025); assay type: functional
[2] = cytotoxicity toward NIH3T3 fibroblasts, dose response, counter-screen, cell-based, ATP luminescence, mouse fibroblasts (AID 2010); assay type: functional;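 further: cells exposed to compound for about 90 hours before reading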
[3] = inhibitors of intracellular T. cruzi replication, confirmation, NIH3T3 host cells, beta-gal luminescence (AID 2044); assay type: functional, cell-based;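 further: intracellular parasites grown in NIH/3T3 mouse fibroblasts as host cells; luminescent beta-galactosidase reporter signal from transgenic T. cruzi replicating inside host cells; inhibitors lower the luminescence signal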
[4] = molecular target: T1, Heat shock factor protein 1 (Mus musculus, UniProt P38532); assay: HSF1 potentiators in luciferase reporter cells, confirmation, cell-based, NIH3T3, luminescence, dose retest (AID 435004); assay type: functional;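 further: stress induced by proteasome inhibitor MG132 added 30 min after compound; luciferase reporter driven by HSF1 response element in NIH3T3 cells; actives raise luminescence as potentiators of the MG132 stress response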
T1 sequence (P38532 whole entry): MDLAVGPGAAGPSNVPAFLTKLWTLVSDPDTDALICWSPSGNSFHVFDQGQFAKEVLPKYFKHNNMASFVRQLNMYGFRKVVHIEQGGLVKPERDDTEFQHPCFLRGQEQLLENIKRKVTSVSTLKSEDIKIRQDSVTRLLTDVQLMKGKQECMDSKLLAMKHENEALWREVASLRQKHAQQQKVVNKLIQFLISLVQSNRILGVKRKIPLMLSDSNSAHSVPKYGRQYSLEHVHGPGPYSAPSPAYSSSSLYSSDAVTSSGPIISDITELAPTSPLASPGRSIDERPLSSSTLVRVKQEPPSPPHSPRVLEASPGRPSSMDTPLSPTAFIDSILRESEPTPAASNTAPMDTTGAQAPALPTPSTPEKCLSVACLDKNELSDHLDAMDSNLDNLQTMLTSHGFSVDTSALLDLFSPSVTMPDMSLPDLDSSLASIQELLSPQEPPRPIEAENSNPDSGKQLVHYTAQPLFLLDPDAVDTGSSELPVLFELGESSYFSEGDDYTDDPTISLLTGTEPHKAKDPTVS

[5] = molecular target: Glucose-6-phosphate 1-dehydrogenase (Homo sapiens, UniProt P11413); assay: human G6PD enzyme inhibitors, dose response, selectivity assay for P. falciparum G6PD inhibitor project, biochemical, fluorescence (AID 504792); assay type: functional
Glucose-6-phosphate 1-dehydrogenase, sequence (P11413 whole entry): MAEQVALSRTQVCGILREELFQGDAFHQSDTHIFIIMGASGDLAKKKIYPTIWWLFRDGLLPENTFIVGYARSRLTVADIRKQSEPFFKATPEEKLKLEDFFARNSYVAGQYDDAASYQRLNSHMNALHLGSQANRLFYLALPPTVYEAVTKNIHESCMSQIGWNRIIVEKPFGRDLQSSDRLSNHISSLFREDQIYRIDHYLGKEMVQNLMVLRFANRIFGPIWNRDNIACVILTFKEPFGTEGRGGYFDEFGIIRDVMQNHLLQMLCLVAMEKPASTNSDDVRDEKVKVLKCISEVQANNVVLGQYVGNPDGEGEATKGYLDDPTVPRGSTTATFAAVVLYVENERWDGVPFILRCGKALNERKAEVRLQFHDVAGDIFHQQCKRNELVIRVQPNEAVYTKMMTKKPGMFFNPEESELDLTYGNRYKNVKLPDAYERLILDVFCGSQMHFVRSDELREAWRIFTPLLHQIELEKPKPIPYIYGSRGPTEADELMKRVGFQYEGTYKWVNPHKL

[6] = molecular target: T2, Apoptotic protease-activating factor 1 (Homo sapiens, UniProt O14727); assay type: functional
T2 sequence (O14727 whole entry): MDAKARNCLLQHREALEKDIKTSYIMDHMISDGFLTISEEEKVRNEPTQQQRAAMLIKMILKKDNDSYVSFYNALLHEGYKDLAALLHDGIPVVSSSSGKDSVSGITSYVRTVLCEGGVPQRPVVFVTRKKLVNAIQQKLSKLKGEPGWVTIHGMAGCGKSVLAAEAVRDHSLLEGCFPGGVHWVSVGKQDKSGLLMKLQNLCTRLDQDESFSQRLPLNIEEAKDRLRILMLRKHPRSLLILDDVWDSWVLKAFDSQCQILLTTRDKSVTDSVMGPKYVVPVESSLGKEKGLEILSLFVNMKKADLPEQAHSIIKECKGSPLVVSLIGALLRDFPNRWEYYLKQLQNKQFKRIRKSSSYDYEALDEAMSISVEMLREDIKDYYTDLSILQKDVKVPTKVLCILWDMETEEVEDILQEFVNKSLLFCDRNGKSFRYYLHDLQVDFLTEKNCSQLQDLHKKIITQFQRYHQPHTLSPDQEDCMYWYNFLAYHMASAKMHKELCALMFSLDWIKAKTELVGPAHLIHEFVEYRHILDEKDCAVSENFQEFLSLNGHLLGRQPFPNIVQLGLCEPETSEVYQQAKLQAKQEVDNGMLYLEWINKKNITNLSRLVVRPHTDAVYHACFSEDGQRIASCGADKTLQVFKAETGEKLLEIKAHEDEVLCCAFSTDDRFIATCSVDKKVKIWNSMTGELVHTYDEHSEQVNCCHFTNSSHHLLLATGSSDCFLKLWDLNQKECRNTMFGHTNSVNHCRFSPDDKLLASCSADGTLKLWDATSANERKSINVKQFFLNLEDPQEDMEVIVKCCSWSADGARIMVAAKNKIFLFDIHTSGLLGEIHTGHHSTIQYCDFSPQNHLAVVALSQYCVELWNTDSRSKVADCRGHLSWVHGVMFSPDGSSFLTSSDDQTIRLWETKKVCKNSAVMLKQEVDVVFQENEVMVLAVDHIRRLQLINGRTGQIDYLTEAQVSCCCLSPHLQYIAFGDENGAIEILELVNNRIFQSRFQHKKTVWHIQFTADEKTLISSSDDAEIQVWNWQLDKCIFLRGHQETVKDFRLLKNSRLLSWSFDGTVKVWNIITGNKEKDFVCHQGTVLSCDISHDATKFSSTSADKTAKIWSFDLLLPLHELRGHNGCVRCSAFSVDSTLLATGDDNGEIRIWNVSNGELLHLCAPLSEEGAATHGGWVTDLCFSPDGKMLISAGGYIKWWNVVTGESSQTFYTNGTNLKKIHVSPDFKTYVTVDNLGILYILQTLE

Hexokinase HKDC1 = molecular target: T3, Hexokinase HKDC1 (Homo sapiens, UniProt Q2TB90); assay: HKDC1 hexokinase activators, dose response, biochemical, W721R variant (AID 504730); assay type: functional
T3 sequence (Q2TB90 whole entry): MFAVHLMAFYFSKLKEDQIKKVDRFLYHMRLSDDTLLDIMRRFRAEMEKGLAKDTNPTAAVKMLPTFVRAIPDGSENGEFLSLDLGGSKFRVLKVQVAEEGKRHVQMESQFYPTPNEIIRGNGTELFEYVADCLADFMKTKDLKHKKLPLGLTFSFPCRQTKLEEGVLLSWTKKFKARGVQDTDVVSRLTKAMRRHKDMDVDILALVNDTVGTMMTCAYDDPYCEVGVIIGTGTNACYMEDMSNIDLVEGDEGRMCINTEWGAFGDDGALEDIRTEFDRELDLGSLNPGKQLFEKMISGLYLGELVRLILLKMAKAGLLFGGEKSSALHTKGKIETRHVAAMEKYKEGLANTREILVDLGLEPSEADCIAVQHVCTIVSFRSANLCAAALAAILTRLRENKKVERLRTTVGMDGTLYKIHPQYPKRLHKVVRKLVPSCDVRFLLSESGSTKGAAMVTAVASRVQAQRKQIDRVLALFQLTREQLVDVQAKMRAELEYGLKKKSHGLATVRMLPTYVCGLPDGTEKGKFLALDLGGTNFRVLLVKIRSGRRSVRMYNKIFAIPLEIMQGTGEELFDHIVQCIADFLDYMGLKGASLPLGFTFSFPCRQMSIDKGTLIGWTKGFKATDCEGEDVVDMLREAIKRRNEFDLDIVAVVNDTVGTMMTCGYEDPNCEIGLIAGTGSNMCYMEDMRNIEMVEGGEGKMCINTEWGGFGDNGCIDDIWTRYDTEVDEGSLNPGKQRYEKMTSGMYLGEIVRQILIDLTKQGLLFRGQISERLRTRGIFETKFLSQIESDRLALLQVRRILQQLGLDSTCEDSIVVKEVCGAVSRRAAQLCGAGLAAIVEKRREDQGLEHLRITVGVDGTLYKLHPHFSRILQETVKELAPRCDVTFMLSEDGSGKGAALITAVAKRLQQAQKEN

[7] = molecular target: Heat shock protein HSP 90-alpha (Homo sapiens, UniProt P07900); assay type: functional, organism-based

## Clc1ccc(/N=c2\ssnc2Cl)nc1
[1]
  CC50: 17.5 µM (active)
[2]
  EC50: > 60 µM (not active)
[3]
  EC50: 1.45 µM (active)
[4]
  EC50: 16 µM (active)
[5]
  IC50: > 80 µM (inactive)
[6]
  IC50: 14.3 µM (active)
Hexokinase HKDC1
  EC50: 50.3 µM (inactive)
[7]
  AC50: 1.73 µM (active)
